Reference: patent US10662205B2, “Cyclic boronic acid ester derivatives and therapeutic uses thereof” (priority 2014, dated 2020)
Read-outs that look alike come from different tables or passages of the source.

Columns and labels:
KP1004 (KPC-2) [1] = test: Aztreonam potentiation (MPC@4); assay type: cell-based; details: aztreonam 4 μg/mL
EC1010 (CMY-6) [2] = test: Tigemonam potentiation (MPC@4); assay type: cell-based
ec308 (SHV-5) [3] = test: Tigemonam potentiation (MPC@4); assay type: cell-based; details: tigemonam 4 μg/mL
ec302 (TEM-10) [4] = test: Aztreonam potentiation (MPC@4); assay type: cell-based; details: aztreonam 4 μg/mL
P99 = P99 (Enterobacter cloacae, UniProt P05364); test: biochemical; details: nitrocefin reporter substrate; 10 min preincubation; read-out: Ki P99, NCF
Method: (§1) Ki values of inhibition of purified class A, C and D enzymes were determined spectrophotometrically using nitrocefin as reporter substrate. Purified enzymes were mixed with various concentrations of inhibitors in reaction buffer and incubated for 10 min at room temperature. Nitrocefin was added and substrate cleavage profiles were recorded at 490 nm every 10 sec for 10 min.

CTX-M-14 = CTX-M-14 (Escherichia coli, UniProt Q9L5C7); test: Inhibition of nitrocefin cleavage by purified enzyme (Ki); assay type: biochemical; details: nitrocefin reporter substrate; 10 min preincubation; read-out: Ki CTX-M-14, NCF
Method: as §1

SHV-12 = SHV-12 (Klebsiella pneumoniae, UniProt P0AD64, E235K/G234S/L31Q); test: as above; assay type: biochemical
Method: as §1

KP1005 (CTX-M-14) [5] = test: Aztreonam potentiation (MPC@4); assay type: cell-based; details: aztreonam 4 μg/mL
KP1086 (OXA-48) = test: Biapenem potentiation (MPC@1); details: biapenem 1 μg/mL
ec308 (SHV-5) [6] = test: Aztreonam potentiation (MPC@4); assay type: cell-based; details: aztreonam 4 μg/mL
KP1005 (CTX-M-14) [7] = test: Tigemonam potentiation (MPC@4); assay type: cell-based; details: tigemonam 4 μg/mL
ec302 (TEM-10) [8] = test: Tigemonam potentiation (MPC@4); assay type: cell-based; details: tigemonam 4 μg/mL
EC1010 (CMY-6) [9] = test: Aztreonam potentiation (MPC@4); assay type: cell-based; details: aztreonam 4 μg/mL
CMY-2 = CMY-2 (Klebsiella pneumoniae, UniProt Q48434); test: Inhibition of nitrocefin cleavage by purified enzyme (Ki); assay type: biochemical
Method: (§2) Ki values of inhibition of purified class A, C and D enzymes were determined spectrophotometrically using nitrocefin as reporter substrate. Purified enzymes were mixed with various concentrations of inhibitors in reaction buffer and incubated for 10 min at room temperature. Nitrocefin was added and substrate cleavage profiles were recorded at 490 nm every 10 sec for 10 min. These experiments confirmed that the described compounds are inhibitors with a broad-spectrum of activity towards various β-lactamases.

OXA-48 = OXA-48 (Klebsiella pneumoniae, UniProt Q6XEC0); test: as above; assay type: biochemical; details: nitrocefin reporter substrate; 10 min preincubation; read-out: Ki OXA-48, NCF
Method: as §2

KPC-2 = KPC-2 (Klebsiella pneumoniae, UniProt Q9F663); test: as above; assay type: biochemical; details: nitrocefin reporter substrate; 10 min preincubation; read-out: Ki KPC-2, NCF
Method: as §2

ECL1002 [10] = test: Tigemonam potentiation (MPC@4); assay type: cell-based; details: tigemonam 4 μg/mL
KP1009 (CTX-M-15) [11] = test: Tigemonam potentiation (MPC@4); assay type: cell-based
KP1004 (KPC-2) [12] = test: Biapenem potentiation (MPC@1); details: biapenem 1 μg/mL
KP1010 (SHV-12) [13] = test: Aztreonam potentiation (MPC@4); assay type: cell-based; details: aztreonam 4 μg/mL
KP1010 (SHV-12) [14] = test: Tigemonam potentiation (MPC@4); assay type: cell-based
ECL1002 [15] = test: Aztreonam potentiation (MPC@4); assay type: cell-based; details: aztreonam 4 μg/mL
KP1009 (CTX-M-15) [16] = test: Aztreonam potentiation (MPC@4); assay type: cell-based; details: aztreonam 4 μg/mL
PAM1032/KPC-2 = test: Biapenem potentiation MPC64, efflux proficient strain; assay type: cell-based, Pseudomonas aeruginosa; set-up: unit not given here; details: efflux proficient (MexAB-OprM overexpressed); decrease biapenem MIC 64-fold, 32 to 0.5 μg/ml
Method: (§3) Efflux of BLIs from Pseudomonas aeruginosa by the MexAB-OprM efflux pump was also evaluated. The plasmid expressing the gene encoding KPC-2 was introduced into two strains of P. aeruginosa, PAM1032 and PAM1154 that overexpressed or lacked MexAB-OprM, respectively. Due to expression of KPC-2 both strains became resistant to biapenem. […] Potency of BLIs to potentiate biapenem in these strains was determined. […] The ratio of MPC64 values for each BLI in PAM1032/KPC-2 (efflux proficient) and PAM1154/KPC-2 (efflux deficient) was determined to generate the Efflux Index (EI).

PAM1154/KPC-2 = test: Biapenem potentiation MPC64, efflux deficient strain; assay type: cell-based, Pseudomonas aeruginosa; set-up: unit not given here; details: efflux deficient (lacks MexAB-OprM); decrease biapenem MIC 64-fold, 32 to 0.5 μg/ml
Method: as §3

[17] = tigemonam 4 μg/mL, EC1010, CMY-6
[18] = nitrocefin reporter substrate, 10 min preincubation, read-out: Ki CMY-2, NCF

Sequence of CTX-M-14 (Q9L5C7 29-291): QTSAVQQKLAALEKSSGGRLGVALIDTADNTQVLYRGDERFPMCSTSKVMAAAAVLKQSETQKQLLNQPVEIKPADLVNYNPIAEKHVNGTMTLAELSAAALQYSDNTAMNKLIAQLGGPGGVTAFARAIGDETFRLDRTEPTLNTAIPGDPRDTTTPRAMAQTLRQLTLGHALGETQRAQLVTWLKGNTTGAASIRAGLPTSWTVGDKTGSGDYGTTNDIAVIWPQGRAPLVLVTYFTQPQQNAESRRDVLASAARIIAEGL
Sequence of KPC-2 (Q9F663 25-293, looked up, species assumed): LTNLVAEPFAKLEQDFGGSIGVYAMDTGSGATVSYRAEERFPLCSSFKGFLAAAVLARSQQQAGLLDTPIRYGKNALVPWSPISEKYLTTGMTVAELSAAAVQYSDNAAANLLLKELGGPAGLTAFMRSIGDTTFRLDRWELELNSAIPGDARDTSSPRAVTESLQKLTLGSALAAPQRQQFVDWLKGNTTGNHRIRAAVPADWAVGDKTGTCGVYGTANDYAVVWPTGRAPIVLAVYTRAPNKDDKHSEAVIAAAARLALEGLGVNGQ
Sequence of CMY-2 (Q48434 21-381, species assumed): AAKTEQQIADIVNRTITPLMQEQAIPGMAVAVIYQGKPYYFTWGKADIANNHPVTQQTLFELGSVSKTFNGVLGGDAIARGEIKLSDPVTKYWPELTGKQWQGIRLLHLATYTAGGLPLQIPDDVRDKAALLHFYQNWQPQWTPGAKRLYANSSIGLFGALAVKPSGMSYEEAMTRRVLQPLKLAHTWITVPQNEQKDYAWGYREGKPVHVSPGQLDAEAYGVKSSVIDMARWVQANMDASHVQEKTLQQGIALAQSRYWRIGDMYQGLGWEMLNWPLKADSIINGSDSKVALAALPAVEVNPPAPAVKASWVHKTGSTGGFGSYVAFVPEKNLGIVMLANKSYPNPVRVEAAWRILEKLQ
Sequence of OXA-48 (Q6XEC0 23-265, looked up, species assumed): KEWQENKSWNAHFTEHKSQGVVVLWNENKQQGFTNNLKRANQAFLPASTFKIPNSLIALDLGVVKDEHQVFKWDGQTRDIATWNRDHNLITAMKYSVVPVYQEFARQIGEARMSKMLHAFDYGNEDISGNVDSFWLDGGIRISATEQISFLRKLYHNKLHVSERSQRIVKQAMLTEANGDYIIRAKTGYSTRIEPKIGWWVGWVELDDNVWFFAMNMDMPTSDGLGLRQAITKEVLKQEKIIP
Sequence of SHV-12 (P0AD64 22-286 L31Q/G234S/E235K): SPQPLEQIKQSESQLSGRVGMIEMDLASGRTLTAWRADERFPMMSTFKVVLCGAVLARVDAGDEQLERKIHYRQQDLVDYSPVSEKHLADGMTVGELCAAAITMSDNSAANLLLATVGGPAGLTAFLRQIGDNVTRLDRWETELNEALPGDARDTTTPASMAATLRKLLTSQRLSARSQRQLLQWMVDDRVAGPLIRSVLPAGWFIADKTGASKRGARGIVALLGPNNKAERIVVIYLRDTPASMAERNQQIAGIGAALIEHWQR
Sequence of P99 (P05364 21-381): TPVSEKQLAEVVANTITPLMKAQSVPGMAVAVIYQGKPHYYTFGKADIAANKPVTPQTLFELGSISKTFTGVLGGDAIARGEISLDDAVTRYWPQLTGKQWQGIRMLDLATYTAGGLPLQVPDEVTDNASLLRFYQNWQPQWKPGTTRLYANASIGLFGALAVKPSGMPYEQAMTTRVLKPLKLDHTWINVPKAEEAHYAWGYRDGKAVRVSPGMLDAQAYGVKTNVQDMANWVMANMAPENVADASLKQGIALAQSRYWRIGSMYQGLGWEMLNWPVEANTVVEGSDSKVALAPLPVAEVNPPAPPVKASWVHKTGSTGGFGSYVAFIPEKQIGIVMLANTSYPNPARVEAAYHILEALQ

Structure (SMILES)	MPC@4 aztreonam potentiation (KP1004 (KPC-2) [1])	MPC@4 tigemonam potentiation (EC1010 (CMY-6) [2]; [17])	MPC@4 tigemonam potentiation (ec308 (SHV-5) [3])	MPC@4 aztreonam potentiation (ec302 (TEM-10) [4])	Ki (CTX-M-14) [nM]	MPC@4 aztreonam potentiation (KP1005 (CTX-M-14) [5])	MPC@1 biapenem potentiation (KP1086 (OXA-48))	MPC@4 aztreonam potentiation (ec308 (SHV-5) [6])	MPC@4 tigemonam potentiation (KP1005 (CTX-M-14) [7])	MPC@4 tigemonam potentiation (ec302 (TEM-10) [8])	MPC@4 aztreonam potentiation (EC1010 (CMY-6) [9])	Ki (CMY-2; [18]) [nM]	Ki (OXA-48) [nM]	Ki (KPC-2) [nM]	MPC@4 tigemonam potentiation (ECL1002 [10])	MPC@4 tigemonam potentiation (KP1009 (CTX-M-15) [11])	MPC@1 biapenem potentiation (KP1004 (KPC-2) [12])	MPC@4 aztreonam potentiation (KP1010 (SHV-12) [13])	MPC@4 tigemonam potentiation (KP1010 (SHV-12) [14])	MPC@4 aztreonam potentiation (ECL1002 [15])	also measured
Cc1nnc(SCC(=O)N[C@H]2CC=C[C@@H]3CC(=O)OB2O3)s1 [Compound 8, 2-(5-METHYL-1,3,4-THIADIAZOL-2-YLTHIO)-N-((2R,6S)-8-OXO-9,10-DIOXA-1-BORABICYCLO[4.3.1]DEC-4-EN-2-YL)ACETAMIDE]	Y (Y = 5 μg/mL < MPC@4 ≤ 20 μg/mL)	X (X = MPC@4 ≤ 5 μg/mL)	Y (Y = 5 μg/mL < MPC@4 ≤ 20 μg/mL)	X (X = MPC@4 ≤ 5 μg/mL)	< 100	X (X = MPC@4 ≤ 5 μg/mL)	Z (Z = MPC@1 > 20 μg/mL)	X (X = MPC@4 ≤ 5 μg/mL)	Y (Y = 5 μg/mL < MPC@4 ≤ 20 μg/mL)	Y (Y = 5 μg/mL < MPC@4 ≤ 20 μg/mL)	Y (Y = 5 μg/mL < MPC@4 ≤ 20 μg/mL)	< 100	< 100	100 to 1000	X (X = MPC@4 ≤ 5 μg/mL)	X (key: X = MPC@4 ≤ 5 μg/mL; Y = 5 μg/mL < MPC@4 ≤ 20 μg/mL; Z = MPC@4 > 20 μg/mL)	X (X = MPC@1 ≤ 5 μg/mL)	X (X = MPC@4 ≤ 5 μg/mL)	X (key: X = MPC@4 ≤ 5 μg/mL; Y = 5 μg/mL < MPC@4 ≤ 20 μg/mL; Z = MPC@4 > 20 μg/mL)	X (X = MPC@4 ≤ 5 μg/mL)	Ki (P99): < 100 nM; Ki (SHV-12): < 100 nM
O=C(CSc1nncs1)N[C@H]1CC=C[C@@H]2CC(=O)OB1O2 [Compound 7, 2-(1,3,4-THIADIAZOL-2-YLTHIO)-N-((2R,6S)-8-OXO-9,10-DIOXA-1-BORABICYCLO[4.3.1]DEC-4-EN-2-YL)ACETAMIDE]	X (X = MPC@4 ≤ 5 μg/mL)	X (X = MPC@4 ≤ 5 μg/mL)	X (X = MPC@4 ≤ 5 μg/mL)	X (X = MPC@4 ≤ 5 μg/mL)	< 100	X (X = MPC@4 ≤ 5 μg/mL)	Z (Z = MPC@1 > 20 μg/mL)	X (X = MPC@4 ≤ 5 μg/mL)	X (X = MPC@4 ≤ 5 μg/mL)	Y (Y = 5 μg/mL < MPC@4 ≤ 20 μg/mL)	X (X = MPC@4 ≤ 5 μg/mL)	< 100	< 100	100 to 1000	X (X = MPC@4 ≤ 5 μg/mL)	X (key: X = MPC@4 ≤ 5 μg/mL; Y = 5 μg/mL < MPC@4 ≤ 20 μg/mL; Z = MPC@4 > 20 μg/mL)	X (X = MPC@1 ≤ 5 μg/mL)	X (X = MPC@4 ≤ 5 μg/mL)	X (key: X = MPC@4 ≤ 5 μg/mL; Y = 5 μg/mL < MPC@4 ≤ 20 μg/mL; Z = MPC@4 > 20 μg/mL)	X (X = MPC@4 ≤ 5 μg/mL)	Ki (P99): < 100 nM; MPC@4 aztreonam potentiation (KP1009 (CTX-M-15) [16]): X (X = MPC@4 ≤ 5 μg/mL); Ki (SHV-12): < 100 nM; PAM1032/KPC-2 Biapenem MPC64 (PAM1032/KPC-2): 40; PAM1154/KPC-2 Biapenem MPC64 (PAM1154/KPC-2): 5
O=C(O)[C@H]1/C(=C/CO)O[C@@H]2CC(=O)N21 [Clavulanic Acid, reference compound]	Z (Z = MPC@4 > 20 μg/mL)		X (X = MPC@4 ≤ 5 μg/mL)	X (X = MPC@4 ≤ 5 μg/mL)	< 100	X (X = MPC@4 ≤ 5 μg/mL)	Z (Z = MPC@1 > 20 μg/mL)	X (X = MPC@4 ≤ 5 μg/mL)	X (X = MPC@4 ≤ 5 μg/mL)	X (X = MPC@4 ≤ 5 μg/mL)	Z (Z = MPC@4 > 20 μg/mL)	> 1000	> 1000	> 1000	Y (Y = 5 μg/mL < MPC@4 ≤ 20 μg/mL)	X (key: X = MPC@4 ≤ 5 μg/mL; Y = 5 μg/mL < MPC@4 ≤ 20 μg/mL; Z = MPC@4 > 20 μg/mL)	Y (Y = 5 μg/mL < MPC@1 ≤ 20 μg/mL)	X (X = MPC@4 ≤ 5 μg/mL)	X (key: X = MPC@4 ≤ 5 μg/mL; Y = 5 μg/mL < MPC@4 ≤ 20 μg/mL; Z = MPC@4 > 20 μg/mL)	Z (Z = MPC@4 > 20 μg/mL)	MPC@4 tigemonam potentiation (EC1010 (CMY-6) [2]): Y (key: X = MPC@4 ≤ 5 μg/mL; Y = 5 μg/mL < MPC@4 ≤ 20 μg/mL; Z = MPC@4 > 20 μg/mL); MPC@4 aztreonam potentiation (KP1009 (CTX-M-15) [16]): X (X = MPC@4 ≤ 5 μg/mL)
C[C@]1(Cn2ccnn2)[C@H](C(=O)O)N2C(=O)C[C@H]2S1(=O)=O [Tazobactam, reference compound]	Z (Z = MPC@4 > 20 μg/mL)	X (X = MPC@4 ≤ 5 μg/mL)	X (X = MPC@4 ≤ 5 μg/mL)	X (X = MPC@4 ≤ 5 μg/mL)		Y (Y = 5 μg/mL < MPC@4 ≤ 20 μg/mL)	Y (Y = 5 μg/mL < MPC@1 ≤ 20 μg/mL)			X (X = MPC@4 ≤ 5 μg/mL)	Y (Y = 5 μg/mL < MPC@4 ≤ 20 μg/mL)		100 to 1000	> 1000			Z (Z = MPC@1 > 20 μg/mL)	X (X = MPC@4 ≤ 5 μg/mL)		Z (Z = MPC@4 > 20 μg/mL)	MPC@4 aztreonam potentiation (KP1009 (CTX-M-15) [16]): Y (Y = 5 μg/mL < MPC@4 ≤ 20 μg/mL); Ki (CMY-2): 100 to 1000 nM; MPC@4 tigemonam potentiation (KP1009 (CTX-M-15) [11]; tigemonam 4 μg/mL, KP1009, CTX-M-15): Y (Y = 5 μg/mL < MPC@4 ≤ 20 μg/mL); MPC@4 tigemonam potentiation (KP1010 (SHV-12) [14]; tigemonam 4 μg/mL, KP1010, SHV-12): X (X = MPC@4 ≤ 5 μg/mL)
